Legend:
[1] = Compound toxicity, ATPLite total ATP levels; assay type: cell-based; details: human, HepG2 cells, 50% reduction of total ATP levels (ATPLite), three days after compound addition
Experimental: Compound toxicity is evaluated by seeding cells at 15,000 cells/well and treating with compound as described above.

HBV = assay: HepAD38 antiviral assay: reduction of viral product accumulation (virion DNA by qPCR, HBsAg/HBeAg by ELISA); assay type: cell-based; details: Hepatitis B virus, 120 h, HepAD38 cells, 50% reduction of viral product accumulation vs no drug controls, five days after compound addition
Experimental: Methods: HepAD38 cells are maintained as previously reported (Ladner et al, Antimicrob. Agents Chemother. 1997, […], 1715). Briefly, cells are passaged upon attaining confluency in DMEM/F12 media in the presence of 10% FBS, Penn/Strep, 250 μg/mL G418, and 1 μg/ml tetracycline. Novel compounds are screened by first washing cells three times with PBS to remove tetracycline, and plating in 96 well plates at 35,000 cells/well. Compounds dissolved in DMSO are then diluted 1:200 into wells containing cells. Five days after compound addition, material is harvested for analysis. For an extended 8 day analysis, cells are plated and treated as described above, but media and compound are refreshed on d2 and d5 post initial treatment.
On harvest day, virion DNA is obtained by lysing with Sidestep Lysis and Stabilization Buffer and then quantified via quantitative real time PCR. Commercially available ELISA kits are used to quantitate the viral proteins HBsAg (Alpco) or HbeAg (US Biological) by following the manufacturer's recommended protocol after diluting samples to match the linear range of their respective assays. Irrespective of readout, compound concentrations that reduce viral product accumulation in the cell lysates or supernatants by 50% relative to no drug controls (EC50) are reported; EC50 ranges are as follows: A<0.1 μM; B 0.1-1 μM; C>1 μM.

Compound | CC50 at 3 days [1] | EC50 (HBV; class symbols) | EC50 (HBV; given as numeric bound)
O=S(=O)(N[C@H]1CC2=C(c3cnn(C(F)F)c3)[C@H](c3ccc(F)cc3Cl)N=C(c3nccs3)N2C1)C1CCOCC1 [Example 56] | > 25000 nM | < 100 nM | –
O=C1N[C@@](CO)(CC2=C(c3ccn(C(F)F)n3)[C@H](c3ccc(F)cc3Cl)N=C(c3nccs3)N2)CO1 [Example 94] | > 25000 nM | < 100 nM | –
COC(=O)N[C@]1(CO)CC2=C(c3ccn(C(F)F)n3)[C@H](c3ccc(F)cc3Cl)N=C(c3nccs3)N2C1 [Example 61] | > 25000 nM | < 100 nM | –
O=S(=O)(N[C@H]1CC2=C(c3cnn(C(F)F)c3)[C@H](c3ccc(F)cc3Cl)N=C(c3nccs3)N2C1)C1CC1 [Example 1] | > 25000 nM | < 100 nM | –
O=S(=O)(N[C@H]1CC2=C(c3ccn(C4CC4)n3)[C@H](c3ccc(F)cc3Cl)N=C(c3nccs3)N2C1)C1CC1 [Example 3] | > 25000 nM | < 100 nM | –
CN(C)S(=O)(=O)N[C@H]1CC2=C(c3cnn(C(F)F)c3)[C@H](c3ccc(F)cc3Cl)N=C(c3nccs3)N2C1 [Example 13] | > 25000 nM | < 100 nM | –
NS(=O)(=O)N[C@H]1CC2=C(c3cnn(C(F)F)c3)[C@H](c3ccc(F)cc3Cl)N=C(c3nccs3)N2C1 [Example 9] | > 25000 nM | < 100 nM | –
O=S(=O)(N[C@H]1CC2=C(c3cnn(C4CC4)c3)[C@H](c3ccc(F)cc3Cl)N=C(c3nccs3)N2C1)C1CC1 [Example 6] | > 25000 nM | < 100 nM | –
O=S(=O)(N[C@H]1CC2=C(c3cnn(C(F)(F)F)c3)[C@H](c3ccc(F)cc3Cl)N=C(c3nccs3)N2C1)C1CC1 [Example 8] | 10000 to 25000 nM | < 100 nM | –
CS(=O)(=O)N[C@H]1CC2=C(c3cnn(C(F)F)c3)[C@H](c3ccc(F)cc3Cl)N=C(c3nccs3)N2C1 [Example 10] | > 25000 nM | < 100 nM | –
CS(=O)(=O)NC[C@@]1(O)CC2=C(c3ccn(C(F)F)n3)[C@H](c3ccc(F)cc3Cl)N=C(c3nccs3)N2C1 [Example 115] | – | – | > 400 nM
O=S(=O)(NC1CC1)N[C@H]1CC2=C(c3cnn(C(F)F)c3)[C@H](c3ccc(F)cc3Cl)N=C(c3nccs3)N2C1 [Example 12] | 10000 to 25000 nM | < 100 nM | –
OCC(CO)CC1=C(c2cnn(C(F)F)c2)[C@H](c2ccc(F)cc2Cl)N=C(c2nccs2)N1 [Example 26] | – | – | > 100 nM
CC(=O)[C@]1(CC2=C(c3ccn(C(F)F)n3)[C@H](c3ccc(F)cc3Cl)N=C(c3nccs3)N2)COC(=O)N1 [Example 108] | – | – | > 400 nM
OC[C@@]1(O)CC2=C(c3ccn(C(F)F)n3)[C@H](c3ccc(F)cc3Cl)N=C(c3nccs3)N2C1 [Example 122] | – | 100 to 1000 nM | –
COC(=O)[C@@]1(NC(=O)OC(C)(C)C)CC2=C(c3ccn(C(F)F)n3)[C@H](c3ccc(F)cc3Cl)N=C(c3nccs3)N2C1 [Example 64] | – | – | > 400 nM
CN(C)C(=O)N[C@H]1CC2=C(c3cnn(C(F)F)c3)[C@H](c3ccc(F)cc3Cl)N=C(c3nccs3)N2C1 [Example 18] | – | < 100 nM | –
Fc1ccc([C@@H]2N=C(c3nccs3)NC(C[C@]3(F)CO[C@@H](c4ccccc4)OC3)=C2c2cnn(C(F)F)c2)c(Cl)c1 [Example 143] | – | – | > 400 nM
OCC1CC2=C(c3cnn(C(F)F)c3)[C@H](c3ccc(F)cc3Cl)N=C(c3nccs3)N2C1 (some centres unmarked) [Example 27] | – | – | > 100 nM
CS(=O)(=O)OC[C@]1(N=[N+]=[N-])CC2=C(c3cnn(C(F)F)c3)[C@H](c3ccc(F)cc3Cl)N=C(c3nccs3)N2C1 [Example 49] | – | 100 to 1000 nM | –

Compound | CC50 at 3 days [1] | EC50 (HBV; class symbols) | EC50 (HBV; given as numeric bound)
CCC[C@H]1OC[C@](F)(CC2=C(c3cnn(C(F)F)c3)[C@H](c3ccc(F)cc3Cl)N=C(c3nccs3)N2)CO1 [Example 141] | – | – | > 400 nM
O=C(O)CC[C@]1(CC2=C(c3ccn(C(F)F)n3)[C@H](c3ccc(F)cc3Cl)N=C(c3nccs3)N2)COC(=O)N1 [Example 107] | – | – | > 400 nM
COC(=O)CCNC(=O)OC[C@@]1(NC(=O)OC)CC2=C(c3ccn(C(F)F)n3)[C@H](c3ccc(F)cc3Cl)N=C(c3nccs3)N2C1 [Example 78] | – | – | > 400 nM
Fc1ccc([C@@H]2N=C(c3nccs3)NC(C[C@]3(F)CO[C@H](c4ccccc4)OC3)=C2c2cnn(C(F)F)c2)c(Cl)c1 [Example 144] | – | – | > 400 nM
CC(C)S(=O)(=O)N[C@H]1CC2=C(c3cnn(C(F)F)c3)[C@H](c3ccc(F)cc3Cl)N=C(c3nccs3)N2C1 [Example 24] | – | < 100 nM | –
O=C(N[C@H]1CC2=C(c3cnn(C(F)F)c3)[C@H](c3ccc(F)cc3Cl)N=C(c3nccs3)N2C1)NS(=O)(=O)C1CC1 [Example 16] | – | – | > 100 nM
OC1CCCC1CC1=C(c2cnn(C(F)F)c2)[C@H](c2ccc(F)cc2Cl)N=C(c2nccs2)N1 (some centres unmarked) [Example 45] | – | 100 to 1000 nM | –
COC(=O)N[C@]1(COC(C)=O)CC2=C(c3ccn(C(F)F)n3)[C@H](c3ccc(F)cc3Cl)N=C(c3nccs3)N2C1 [Example 83] | – | – | > 400 nM
COC(=O)[C@@]1(NS(C)(=O)=O)CC2=C(c3ccn(C(F)F)n3)[C@H](c3ccc(F)cc3Cl)N=C(c3nccs3)N2C1 [Example 67] | – | – | > 400 nM
COCCS(=O)(=O)N[C@H]1CC2=C(c3cnn(C(F)F)c3)[C@H](c3ccc(F)cc3Cl)N=C(c3nccs3)N2C1 [Example 57] | > 25000 nM | < 100 nM | –
C[C@H]1OC[C@](F)(CC2=C(c3cnn(C(F)F)c3)[C@H](c3ccc(F)cc3Cl)N=C(c3nccs3)N2)CO1 [Example 139] | – | – | > 400 nM
[N-]=[N+]=N[C@@]1(CO)CC2=C(c3cnn(C(F)F)c3)[C@H](c3ccc(F)cc3Cl)N=C(c3nccs3)N2C1 [Example 48] | – | – | > 400 nM
COC[C@@]1(NC(=O)OC)CC2=C(c3ccn(C(F)F)n3)[C@H](c3ccc(F)cc3Cl)N=C(c3nccs3)N2C1 [Example 85] | – | – | > 400 nM
CO/N=C/[C@]1(CC2=C(c3ccn(C(F)F)n3)[C@H](c3ccc(F)cc3Cl)N=C(c3nccs3)N2)COC(=O)N1 [Example 101] | – | – | > 400 nM
CNS(=O)(=O)N[C@H]1CC2=C(c3cnn(C(F)F)c3)[C@H](c3ccc(F)cc3Cl)N=C(c3nccs3)N2C1 [Example 11] | > 25000 nM | < 100 nM | –
CS(=O)(=O)N[C@]1(CO)CC2=C(c3ccn(C(F)F)n3)[C@H](c3ccc(F)cc3Cl)N=C(c3nccs3)N2C1 [Example 69] | – | – | > 400 nM
CN(C)C(=O)NCC1(F)CC2=C(c3cnn(C(F)F)c3)[C@H](c3ccc(F)cc3Cl)N=C(c3nccs3)N2C1 (some centres unmarked) [Example 44] | – | 100 to 1000 nM | –
CS(=O)(=O)NC(=O)N[C@H]1CC2=C(c3cnn(C(F)F)c3)[C@H](c3ccc(F)cc3Cl)N=C(c3nccs3)N2C1 [Example 15] | – | – | > 100 nM
C=CCOCC(F)(COC)CC1=C(c2cnn(C(F)F)c2)[C@H](c2ccc(F)cc2Cl)N=C(c2nccs2)N1 (some centres unmarked) [Example 136] | – | – | > 400 nM
CCS(=O)(=O)N[C@H]1CC2=C(c3cnn(C(F)F)c3)[C@H](c3ccc(F)cc3Cl)N=C(c3nccs3)N2C1 [Example 21] | – | < 100 nM | –

From US10723733B2, “Hepatitis B antiviral agents” (Enanta Pharmaceuticals, Inc., priority 2017, dated 2020)
